US20220073496A1, “NOVEL QUINOLINE DERIVATIVE INHIBITOR” (Nanjing Transthera Biosciences Co., Ltd., priority 2018, published 2022)

Tests used:
[1] = Stability in liver microsome of dogs; type: in vitro ADME; conditions: Dog liver microsome 0.5 mg protein/mL, compound 1 μM, 37° C.; for half-life at 1 μM / microsomal CLint at 1 μM: liver microsomes
Protocol: Assay 1: Stability assessment of the compounds of the present invention in liver microsome of mice and dogs
(§1) Test substances: the compounds of the present invention, wherein the structures and preparations thereof were as described above.
The composition of the incubation system:
Preparation of Test Substances:
An appropriate amount of the compound was accurately weighed and dissolved in DMSO to prepare a 5.0 mM stock solution. The 5.0 mM stock solution was diluted to 1.0 mM with DMSO, and finally diluted with water to a 10 μM test substance working solution for use (the DMSO content in the reaction system was 0.1%).
(1) The liver microsome (20 mg protein/mL) was taken out from the −80° C. refrigerator, pre-incubated at 37° C. with a water-bathing constant temperature vibrator for 3 minutes, and melted for use.
(2) A mixed solution of the incubation system (excluding compounds and β-NADPH) according to the above “composition of the incubation system” for the assay was prepared, and pre-incubated at 37° C. with a water-bathing constant temperature vibrator for 2 minutes.
(3) Control group (excluding β-NADPH): 30 μL of water and 30 μL of compound working solution (10 μM) were added to 240 μL of the mixed solution of the incubation system of step (2), and vortexed for 30 seconds to mix well. The total reaction volume was 300 μL. A duplicate sample was prepared. The sample was incubated at 37° C. with a water-bathing constant temperature vibrator. The timekeeping began and the sampling time points were set at 0 minute and 60 minutes.
(4) Sample group: 70 μL of β-NADPH solution (10 mM) and 70 μL of compound working solution (10 μM) were added to 560 μL of the mixed solution of step (2). The total reaction volume was 700 μL. The resulting mixture was vortexed for 30 seconds to mix well. A duplicate sample was prepared. The sample was incubated at 37° C. with a water-bathing constant temperature vibrator. The timekeeping began and the sampling time points were set at 0 minute, 5 minutes, 10 minutes, 20 minutes, 30 minutes, and 60 minutes after timekeeping.
(5) After vortexing for 3 minutes, the sample was centrifuged at 4000 rpm for 10 minutes.
(6) 50 μL of the supernatant was taken and 150 μL of water was added. The resulting mixture was vortexed to mix well, and analyzed by LC/MS/MS.
The half-life (t1/2) and clearance rate (Cl) were calculated using the following first-order kinetic formula:
Vd=1/protein content in liver microsome
Note: k was the slope of the logarithm of the remaining amount of the compound versus time, and Vd was the apparent distribution volume.

CSF1R (h) = target: T1, CSF1R (h) (Homo sapiens, UniProt P07333); experiment: Enzymatic activity test, CSF1R (h); type: biochemical; conditions: 10 μM [γ-33P]-ATP, 40 minutes, room temperature
T1 construct: purchased
Protocol: Assay 3: Enzymatic Activity Test of the Compounds of the Present Invention
as §1
(1) Preparation of the Compound Stock Solution
The compound was dissolved in 100% DMSO to prepare a stock solution with a maximum concentration of 500 μM.
(2) Preparation of the Compound Working Solution
The compound stock solution was diluted to final concentrations of 500, 150, 50, 15, 5, 1.5, 0.5, 0.15 and 0.05 μM to become the compound working solutions (50×).
(3) Preparation of Different Enzyme Reaction Solutions
The enzymatic reaction was activated by using 10 mM magnesium acetate and 10 μM [γ-^33P]-ATP to form an Mg/ATP mixed solution.
In a 384-well plate, the compound working solution was added to final concentrations of 10000, 3000, 1000, 300, 100, 30, 10, 3, and 1 nM. Then different enzyme reaction solutions prepared according to the above conditions were added. The incubation was carried out for 40 minutes at room temperature. The test was terminated by the addition of a 0.5% phosphoric acid solution. 10 μL of the reaction solution was taken and dropped to the P30 filter paper. […] The grayscale analysis of the results was performed using Image J software and the IC50 values were calculated using GraphPad 5.0 software.

T1 sequence (P07333 20-972): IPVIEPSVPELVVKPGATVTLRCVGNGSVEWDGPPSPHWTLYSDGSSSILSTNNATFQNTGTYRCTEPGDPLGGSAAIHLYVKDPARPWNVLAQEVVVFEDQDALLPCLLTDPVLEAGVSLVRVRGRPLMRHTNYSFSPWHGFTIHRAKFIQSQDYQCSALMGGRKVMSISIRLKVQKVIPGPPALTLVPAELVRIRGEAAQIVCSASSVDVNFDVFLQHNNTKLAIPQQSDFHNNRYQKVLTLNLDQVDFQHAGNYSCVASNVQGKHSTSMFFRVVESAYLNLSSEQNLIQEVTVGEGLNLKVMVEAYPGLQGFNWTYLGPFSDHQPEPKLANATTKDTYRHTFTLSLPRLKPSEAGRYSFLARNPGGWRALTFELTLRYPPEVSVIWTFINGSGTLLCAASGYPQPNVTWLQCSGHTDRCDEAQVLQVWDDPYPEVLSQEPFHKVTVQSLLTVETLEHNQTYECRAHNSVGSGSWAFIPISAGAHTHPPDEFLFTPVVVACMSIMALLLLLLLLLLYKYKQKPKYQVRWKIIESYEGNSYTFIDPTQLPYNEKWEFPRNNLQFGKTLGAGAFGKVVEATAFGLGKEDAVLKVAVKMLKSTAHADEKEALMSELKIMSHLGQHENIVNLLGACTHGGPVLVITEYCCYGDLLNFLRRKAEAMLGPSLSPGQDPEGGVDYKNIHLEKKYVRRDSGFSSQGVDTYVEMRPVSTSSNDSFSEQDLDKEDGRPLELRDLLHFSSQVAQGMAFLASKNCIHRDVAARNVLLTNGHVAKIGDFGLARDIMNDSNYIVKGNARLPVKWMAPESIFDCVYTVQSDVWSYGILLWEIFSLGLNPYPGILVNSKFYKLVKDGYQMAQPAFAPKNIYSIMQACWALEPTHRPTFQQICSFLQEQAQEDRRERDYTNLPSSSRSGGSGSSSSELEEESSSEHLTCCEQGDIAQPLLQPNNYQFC

| SMILES | half-life at 1 μM [1] [min] | microsomal CLint at 1 μM [1] [µL/min/mg] | IC50 (CSF1R (h)) [nM] | t1/2 [1] |
| --- | --- | --- | --- | --- |
| COc1cc2nccc(Oc3ccc(NC(=O)c4nn(C5CC5)cc(-c5ccc(C)cc5)c4=O)nc3)c2cc1OC [Compound 46, 1-cyclopropyl-N-(5-((6,7-dimethoxyquinolin-4-yl)oxy)pyridin-2-yl)-4-oxo-5-p-tolyl-1,4-dihydropyridazine-3-carboxamide] | 12.5 | 111 | – | – |
| COc1cc2nccc(Oc3ccc(NC(=O)c4nn(C(C)C)cc(-c5ccc(F)cc5)c4=O)nc3)c2cc1OC [Compound 15, N-(5-((6,7-dimethoxyquinolin-4-yl)oxy)pyridin-2-yl)-5-(4-fluorophenyl)-1-isopropyl-4-oxo-1,4-dihydropyridazine-3-carboxamide] | 224 | 6.2 | 38 | – |
| COc1cc2nccc(Oc3ncc(NC(=O)c4nn(C5CC5)cc(-c5ccc(F)cc5)c4=O)cn3)c2cc1OC [Compound 37, 1-cyclopropyl-N-(2-((6,7-dimethoxyquinolin-4-yl)oxy)pyrimidine-5-yl)-5-para-fluorophenyl-4-oxo-1,4-dihydropyridazine-3-carboxamide] | 169 | 8.2 | – | – |
| COc1cc2nccc(Oc3cnc(NC(=O)c4nn(C(C)C)cc(-c5ccc(F)cc5)c4=O)nc3)c2cc1OC [Compound 16, N-(5-((6,7-dimethoxyquinolin-4-yl)oxy)pyrimidine-2-yl)-5-(4-fluorophenyl)-1-isopropyl-4-oxo-1,4-dihydropyridazine-3-carboxamide] | 495 | 2.8 | 61 | – |
| COc1cc2nccc(Oc3ccc(NC(=O)c4nn(C5CC5)cc(-c5ccc(F)cc5)c4=O)nc3)c2cc1OC [Compound 31] | – | – | 20 | →∞ |
| COc1cc2nccc(Oc3ccc(NC(=O)c4cn(C5CC5)nc(-c5ccc(F)cc5)c4=O)nc3)c2cc1OC [Compound 42, 2-cyclopropyl-N-(5--((6,7-dimethoxyquinolin-4-yl)oxy)pyridin-2-yl)-6-(4-fluorophenyl)-5-oxo-2,5-dihydropyridazine-4-carboxamide] | – | – | – | →∞ |
| COc1cc2nccc(Oc3cnc(NC(=O)c4cn(C5CC5)cc(-c5ccc(F)cc5)c4=O)nc3)c2cc1OC [Compound 32, 1-cyclopropyl-N-(5-((6,7-dimethoxyquinolin-4-yl)oxy)pyrimidine-2-yl)-5-(4-fluorophenyl)-4-oxo-1,4-dihydropyridin-3-carboxamide] | 210 | 6.6 | 93 | – |
| COc1cc2nccc(Oc3cnc(NC(=O)c4cn(C(C)C)nc(-c5ccc(F)cc5)c4=O)nc3)c2cc1OC [Compound 39, N-(5-((6,7-dimethoxyquinolin-4-yl)oxy)pyrimidine-2-yl)-6-(4-fluorophenyl)-2-isopropyl-5-oxo-2,5-dihydropyridazine-4-carboxamide] | – | – | 34 | →∞ |
| COc1cc2nccc(Oc3ccc(NC(=O)c4cn(C(C)C)cc(-c5ccc(F)cc5)c4=O)nc3)c2cc1OC [Compound 14, N-(5-((6,7-dimethoxyquinolin-4-yl)oxy)pyridin-2-yl)-5-(4-fluorophenyl)-1-isopropyl-4-oxo-1,4-dihydropyridin-3-carboxamide] | 154 | 9 | 55 | – |
| COc1cc2nccc(Oc3ccc(NC(=O)c4nn(C(C)C)cc(-c5ccc(F)cc5)c4=O)cn3)c2cc1OC [Compound 29, N-(6-((6,7-dimethoxyquinolin-4-yl)oxy)pyridin-3-yl)-1-isopropyl-4-oxo-5-para-fluorophenyl-1,4-dihydropyridazine-3-carboxamide] | 131 | 10.6 | 51 | – |
| COc1cc2nccc(Oc3cnc(NC(=O)c4nn(C5CC5)cc(-c5ccc(F)cc5)c4=O)nc3)c2cc1OC [Compound 33] | – | – | 37 | →∞ |
| COc1cc2nccc(Oc3ccc(NC(=O)c4cn(C(C)C)nc(-c5ccc(F)cc5)c4=O)cn3)c2cc1OC [Compound 38, N-(6-((6,7-dimethoxyquinolin-4-yl)oxy)pyridin-3-yl)-6-para-fluorophenyl-2-isopropyl-5-oxo-2,5-dihydropyridazine-4-carboxamide] | – | – | 57 | – |
| COc1cc2nccc(Oc3ccc(NC(=O)c4cn(C5CC5)cc(-c5ccc(F)cc5)c4=O)nc3)c2cc1OC [Compound 30, N-(5-((6,7-dimethoxyquinolin-4-yl)oxy)pyridin-2-yl)-1-cyclopropyl-4-oxo-5-para-fluorophenyl-1,4-hydropyridin-3-carboxamide] | 56.3 | 24.6 | 61 | – |
| COc1cc2nccc(Oc3ccc(NC(=O)c4cn(C(C)C)cc(-c5ccc(C)cc5)c4=O)nc3)c2cc1OC [Compound 1, N-(5-((6,7-dimethoxyquinolin-4-yl)oxy)pyridin-2-yl)-1-isopropyl-4-oxo-5-p-tolyl-1,4-dihydropyridin-3-carboxamide] | 12.6 | 110 | 200 | – |
| COc1cc2nccc(Oc3ncc(NC(=O)c4cn(C(C)C)nc(-c5ccc(F)cc5)c4=O)cn3)c2cc1OC [Compound 40, N-(2-((6,7-dimethoxyquinolin-4-yl)oxy)pyrimidine-5-yl)-6-(4-fluorophenyl)-2-isopropyl-5-oxo-2,5-dihydropyridazine-4-carboxamide] | – | – | 259 | →∞ |
| COc1cc2nccc(Oc3ccc(NC(=O)c4nn(C5CC5)cc(-c5ccc(F)cc5)c4=O)cn3)c2cc1OC [Compound 36] | 116 | 12 | 68 | – |
| COc1cc2nccc(Oc3cnc(NC(=O)c4cn(C5CC5)nc(-c5ccc(F)cc5)c4=O)nc3)c2cc1OC [Compound 45, 2-cyclopropyl-N-(5-((6,7-dimethoxyquinolin-4-yl)oxy)pyrimidine-2-yl)-6-(4-fluorophenyl)-5-oxo-2,5-dihydropyridazine-4-carboxamide] | 578 | 2.4 | – | – |
| COc1cc2nccc(Oc3ccc(NC(=O)c4cn(C5CC5)nc(-c5ccc(F)cc5)c4=O)cn3)c2cc1OC [Compound 43, 2-cyclopropyl-N-(6-((6,7-dimethoxyquinolin-4-yl)oxy)pyridin-3-yl)-6-para-fluorophenyl-5-oxo-2,5-dihydropyridazine-4-carboxamide] | 144 | 9.6 | – | – |
| COc1cc2nccc(Oc3ncc(NC(=O)c4nn(C(C)C)cc(-c5ccc(F)cc5)c4=O)cn3)c2cc1OC [Compound 34, N-(2-((6,7-dimethoxyquinolin-4-yl)oxy)pyrimidine-5-yl)-5-para-fluorophenyl-1-isopropyl-4-oxo-1,4-dihydropyridazine-3-carboxamide] | 495 | 2.8 | 161 | – |
| COc1cc2nccc(Oc3cnc(NC(=O)c4cn(C(C)C)cc(-c5ccc(F)cc5)c4=O)nc3)c2cc1OC [Compound 20, N-(5-((6,7-dimethoxyquinolin-4-y)oxy)pyrimidine-2-yl)-5-(4-fluorophenyl)-1-isopropyl-4-oxo-1,4-dihydropyridin-3-carboxamide] | 365 | 3.8 | 78 | – |
